In ChEMBL document CHEMBL5126659, “Antiasthmatic Compounds Targeting β2-Adrenergic Receptor from Perilla frutescens Improved Lung Inflammation by Inhibiting the NF-κB Signaling Pathway” (J Nat Prod, 2022):
Active and inactive are the calls of the source.

What was measured:
Assay type in all cases: functional, organism-based
[1] = test system: Rattus norvegicus; experiment: Anti-asthmatic activity against ovalbumin-induced asthmatic Sprague-Dawley rat model assessed as reduction in total IgE level in serum at 4.5 to 18 mg/kg, po for 7 days by ELISA; conditions: dose 4.5-18 mg/kg, time 7.0 day
[2] = test system: Rattus norvegicus; experiment: Anti-asthmatic activity against ovalbumin-induced asthmatic Sprague-Dawley rat model assessed as reduction in OVA specific IgE level in serum at 4.5 to 18 mg/kg, po for 7 days by ELISA; conditions: dose 4.5-18 mg/kg, time 7.0 day
[3] = test system: Rattus norvegicus; experiment: Anti-asthmatic activity against ovalbumin-induced asthmatic Sprague-Dawley rat model assessed as reduction in total IgE level in BALF at 4.5 to 18 mg/kg, po for 7 days by ELISA; conditions: dose 4.5-18 mg/kg, time 7.0 day
[4] = test system: Rattus norvegicus; experiment: Anti-asthmatic activity against ovalbumin-induced asthmatic Sprague-Dawley rat model assessed as reduction in OVA specific IgE level in BALF at 4.5 to 18 mg/kg, po for 7 days by ELISA; conditions: dose 4.5-18 mg/kg, time 7.0 day
[5] = test system: Rattus norvegicus; experiment: Anti-asthmatic activity against ovalbumin-induced asthmatic Sprague-Dawley rat model assessed as reduction in OVA specific IgE level in serum at 4.5 to 9 mg/kg, po for 7 days by ELISA; conditions: dose 4.5-9 mg/kg, time 7.0 day, DDE = dose-dependent effect
[6] = test system: Rattus norvegicus; experiment: Anti-asthmatic activity against ovalbumin-induced asthmatic Sprague-Dawley rat model assessed as reduction in OVA specific IgE level in BALF at 4.5 to 9 mg/kg, po for 7 days by ELISA; conditions: dose 4.5-9 mg/kg, time 7.0 day, DDE = dose-dependent effect
[7] = test system: Rattus norvegicus; experiment: Anti-asthmatic activity against ovalbumin-induced asthmatic Sprague-Dawley rat model assessed as reduction in eotaxin level in BALF at 4.5 to 18 mg/kg, po for 7 days by ELISA; conditions: dose 4.5-18 mg/kg, time 7.0 day
[8] = test system: Rattus norvegicus; experiment: Anti-asthmatic activity against ovalbumin-induced asthmatic Sprague-Dawley rat model assessed as reduction in IL-4 cytokine level in BALF at 4.5 to 18 mg/kg, po for 7 days by ELISA; conditions: dose 4.5-18 mg/kg, time 7.0 day
[9] = test system: Rattus norvegicus; experiment: Anti-asthmatic activity against ovalbumin-induced asthmatic Sprague-Dawley rat model assessed as reduction in IL-5 cytokine level in BALF at 4.5 to 18 mg/kg, po for 7 days by ELISA; conditions: dose 4.5-18 mg/kg, time 7.0 day
[10] = test system: Rattus norvegicus; experiment: Anti-asthmatic activity against ovalbumin-induced asthmatic Sprague-Dawley rat model assessed as reduction in IL-13 cytokine level in BALF at 4.5 to 18 mg/kg, po for 7 days by ELISA; conditions: dose 4.5-18 mg/kg, time 7.0 day
[11] = test system: Rattus norvegicus; experiment: Anti-asthmatic activity against ovalbumin-induced asthmatic Sprague-Dawley rat model assessed as reduction in inflammatory cell infiltration in lungs at 4.5 to 18 mg/kg, po for 7 days by H and E staining based microscopic analysis; conditions: dose 4.5-18 mg/kg, time 7.0 day
[12] = test system: Rattus norvegicus; experiment: Anti-asthmatic activity against ovalbumin-induced asthmatic Sprague-Dawley rat model assessed as reduction in airway epithelial thickening in lungs at 4.5 to 18 mg/kg, po for 7 days by H and E staining based microscopic analysis; conditions: dose 4.5-18 mg/kg, time 7.0 day
[13] = test system: Rattus norvegicus; experiment: Anti-asthmatic activity against ovalbumin-induced asthmatic Sprague-Dawley rat model assessed as reduction in NFkappaB protein expression in lungs at 4.5 to 18 mg/kg, po for 7 days by immunohistochemistry analysis; conditions: dose 4.5-18 mg/kg, time 7.0 day
[14] = test system: Rattus norvegicus; experiment: Anti-asthmatic activity against ovalbumin-induced asthmatic Sprague-Dawley rat model assessed as reduction in NFkappaB protein expression in lungs at 4.5 to 18 mg/kg, po for 7 days by western blot analysis; conditions: dose 4.5-18 mg/kg, time 7.0 day
[15] = test system: Rattus norvegicus; experiment: Anti-asthmatic activity against ovalbumin-induced asthmatic Sprague-Dawley rat model assessed as reduction in AMCase mRNA expression in lungs at 4.5 to 18 mg/kg, po for 7 days by qRT-PCR analysis; conditions: dose 4.5-18 mg/kg, time 7.0 day
[16] = test system: Rattus norvegicus; experiment: Anti-asthmatic activity against ovalbumin-induced asthmatic Sprague-Dawley rat model assessed as reduction in CCL11 mRNA expression in lungs at 4.5 to 18 mg/kg, po for 7 days by qRT-PCR analysis; conditions: dose 4.5-18 mg/kg, time 7.0 day
[17] = test system: Rattus norvegicus; experiment: Anti-asthmatic activity against ovalbumin-induced asthmatic Sprague-Dawley rat model assessed as reduction in CCR3 mRNA expression in lungs at 4.5 to 18 mg/kg, po for 7 days by qRT-PCR analysis; conditions: dose 4.5-18 mg/kg, time 7.0 day
[18] = test system: Rattus norvegicus; experiment: Anti-asthmatic activity against ovalbumin-induced asthmatic Sprague-Dawley rat model assessed as reduction in YM2 mRNA expression in lungs at 4.5 to 18 mg/kg, po for 7 days by qRT-PCR analysis; conditions: dose 4.5-18 mg/kg, time 7.0 day
[19] = test system: Rattus norvegicus; experiment: Anti-asthmatic activity against ovalbumin-induced asthmatic Sprague-Dawley rat model assessed as reduction in E-selectin mRNA expression in lungs at 4.5 to 18 mg/kg, po for 7 days by qRT-PCR analysis; conditions: dose 4.5-18 mg/kg, time 7.0 day

Measured: Activity

O=C(/C=C/c1ccc(O)c(O)c1)O[C@H](Cc1ccc(O)c(O)c1)C(=O)O
active: [1] | [2] | [3] | [4] | [5] Dde | [6] Dde | [7] | [8] | [9] | [10] | [11] | [12] | [13] | [14] | [15] | [16] | [17] | [18] | [19]
